From PubChem BioAssay (NCI)
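Where inhibition never reached the appropriate level, the endpoint shown equals the highest concentration tested. Otherwise, values were interpolated linearly from a five-concentration, 48-hour dose response in 96-well plates. GI50 is the concentration that inhibits growth by half. TGI denotes the concentration required for complete inhibition of growth.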

Key:
Test in all cases: growth of human tumour cells (NCI), 48 h
[1] = test system: SF-295 CNS
[2] = test system: OVCAR-5 ovarian
[3] = test system: NCI-H522 lung
[4] = test system: OVCAR-8 ovarian
[5] = test system: NCI/ADR-RES ovarian
[6] = test system: UACC-257 melanoma
[7] = test system: ACHN renal
[8] = test system: OVCAR-4 ovarian
[9] = test system: HCC-2998 colon
[10] = test system: MDA-MB-231 breast

| SMILES | TGI [1] | TGI [2] | TGI [3] | TGI [4] | TGI [5] | TGI [6] | TGI [7] | TGI [8] | TGI [9] | TGI [10] | GI50 [1] | GI50 [2] | GI50 [3] | GI50 [4] | GI50 [5] | GI50 [6] | GI50 [8] | GI50 [9] | GI50 [10] | GI50 [7] |
| --- | --- | --- | --- | --- | --- | --- | --- | --- | --- | --- | --- | --- | --- | --- | --- | --- | --- | --- | --- | --- |
| CC(=O)OC1CCC2(C)C(=CCC3C2CCC2(C)C(C(C)C(=O)O)CCC32)C1 (configuration not stated) | > 100 µM | > 100 µM | > 100 µM | > 100 µM | > 100 µM | > 100 µM | > 100 µM | > 100 µM | > 100 µM | > 100 µM | – | – | – | – | – | – | – | – | – | – |
| COc1cc([C@@H]2c3cc4c(cc3[C@@H](O[C@@H]3O[C@@H]5CO[C@@H](c6cccs6)O[C@H]5[C@H](O)[C@H]3O)[C@H]3COC(=O)[C@H]23)OCO4)cc(OC)c1O | 8.21 µM | 8.27 µM | 1.4 µM | 2.51 µM | > 100 µM | 10.5 µM | 3.69 µM | 37.4 µM | 2.02 µM | 7.43 µM | 0.186 µM | 1.56 µM | 0.208 µM | 0.34 µM | 19 µM | 0.796 µM | 2.83 µM | 0.385 µM | 1.56 µM | – |
| COC(=O)c1ccc([N+](=O)[O-])c(O)c1 | > 100 µM | > 100 µM | > 100 µM | > 100 µM | > 100 µM | > 100 µM | > 100 µM | > 100 µM | > 100 µM | > 100 µM | – | – | – | – | – | – | – | – | – | – |
| C[C@H]1CC[C@@H]2[C@@H](C)[C@H]3[C@H](C[C@H]4[C@@H]5CC=C6C[C@@H](O)CC[C@]6(C)[C@H]5C[C@H](O)[C@]34C)N2C1 | > 100 µM | > 100 µM | > 100 µM | > 100 µM | > 100 µM | > 100 µM | > 100 µM | > 100 µM | > 100 µM | > 100 µM | – | – | – | – | – | – | – | – | – | – |
| O=S1(=O)CS(=O)(=O)OCCCO1 | > 100 µM | > 100 µM | > 100 µM | > 100 µM | > 100 µM | > 100 µM | > 100 µM | > 100 µM | > 100 µM | > 100 µM | – | – | – | – | – | – | – | – | – | – |
| COc1ccc(C2=C(c3cc(OC)c(OC)c(OC)c3)C(=O)CC2)cc1 | > 20.5 µM | > 100 µM | 2.84 µM | > 100 µM | > 100 µM | > 100 µM | > 100 µM | > 100 µM | 18.2 µM | > 100 µM | 0.0548 µM | 0.662 µM | 0.0671 µM | 0.392 µM | 0.0704 µM | – | 0.689 µM | 0.244 µM | 0.62 µM | 1.8 µM |
| N#Cc1cccc(NC(=O)c2oc3ccccc3c2-c2cnn(-c3ccccc3)c2)c1 | > 500 µM | > 500 µM | > 500 µM | > 500 µM | > 500 µM | > 500 µM | > 500 µM | > 500 µM | > 500 µM | > 500 µM | 430 µM | > 500 µM | > 500 µM | > 500 µM | > 500 µM | > 500 µM | 193 µM | > 500 µM | 90 µM | > 500 µM |
| COC(=O)[C@H](CC(C)C)NC(=O)NC(=O)NC(=O)CI | 28.7 µM | 30 µM | 3.2 µM | 18.4 µM | 74.1 µM | 20.3 µM | 3.38 µM | 4.26 µM | 24.2 µM | 25.8 µM | 14.7 µM | 14.3 µM | 1.67 µM | 5.69 µM | 25.5 µM | 7.76 µM | 1.88 µM | 11.4 µM | 10.2 µM | 1.78 µM |
| C=C1C(=O)O[C@@H]2C[C@@H]1CC[C@@]1(C)O[C@@H]1CC[C@@]1(C)O[C@@H]1CC[C@@]2(C)O | 60.6 µM | 56.5 µM | 45.4 µM | > 100 µM | 78.3 µM | > 100 µM | 66.4 µM | 34.3 µM | 21.1 µM | 31.6 µM | 19.6 µM | 20.5 µM | 17.5 µM | 29 µM | 32.4 µM | 43.6 µM | 12.3 µM | 4.21 µM | 13.7 µM | 21.5 µM |
| CN(C)CCN=Cc1c2ccccc2c(=O)n2c1oc1ccccc12 | 9.71 µM | 30.5 µM | 38 µM | 21.5 µM | 32.6 µM | 30.5 µM | 11.2 µM | 51.6 µM | 24.6 µM | 29 µM | 2.89 µM | 15.7 µM | 16.5 µM | 5.89 µM | 13.7 µM | 14.2 µM | 18.4 µM | 12.2 µM | 12.5 µM | 2.63 µM |
| C/C(=C\CCc1ccoc1)CC/C=C(\C)CCCN1CCC(CO)CC1 | 5.41 µM | 18.6 µM | 5.83 µM | 19 µM | 14.6 µM | 5.12 µM | 16.7 µM | 14.8 µM | 4.03 µM | 4.39 µM | 2.28 µM | 4.39 µM | 2.17 µM | 5.19 µM | 3.69 µM | 2.16 µM | 3.28 µM | 2.1 µM | 1.73 µM | 4.32 µM |
| N#CN1CCC[C@H]1C(=O)N1CCc2c(-c3[nH]nc4ncccc34)cccc21 | 4.41 µM | 17.4 µM | 0.412 µM | 11 µM | > 31.7 µM | 14.5 µM | 7.89 µM | 13.3 µM | 11.6 µM | 0.177 µM | 0.281 µM | < 0.0156 µM | < 0.01 µM | < 0.01 µM | 0.0103 µM | < 0.01 µM | < 0.01 µM | 0.12 µM | < 0.01 µM | < 0.01 µM |
| C#COc1cccc(Nc2ncnc3ncc(NC(=O)CCl)cc23)c1 | > 62.5 µM | > 62.5 µM | > 29.9 µM | > 62.5 µM | > 62.5 µM | > 62.5 µM | > 62.5 µM | > 62.5 µM | > 62.5 µM | > 62.5 µM | > 52.9 µM | > 47.4 µM | > 17.9 µM | > 14.5 µM | > 24.7 µM | > 62.5 µM | > 62.5 µM | > 62.5 µM | > 27.3 µM | – |
| N#Cc1c(NC(=O)CN2CCOCC2)sc2c1CCCC2 | > 25 µM | > 25 µM | > 25 µM | > 25 µM | > 25 µM | > 25 µM | > 25 µM | > 25 µM | > 25 µM | > 25 µM | > 25 µM | > 25 µM | > 25 µM | > 25 µM | > 25 µM | > 25 µM | > 25 µM | > 25 µM | > 25 µM | > 25 µM |
